Test results reported in ChEMBL document CHEMBL1201862, “PubChem BioAssay data set” (2004).
Active and inactive are the calls of the source.

Tests used:
[1] = inhibitors of intracellular T. cruzi replication, confirmation, NIH3T3 host cells, beta-gal luminescence (AID 2044); format: functional, cell-based;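 further: intracellular parasites grown in NIH/3T3 mouse fibroblasts as host cells; luminescent beta-galactosidase reporter signal from transgenic T. cruzi replicating inside host cells; inhibitors lower the luminescence signal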
[2] = cytotoxicity toward NIH3T3 fibroblasts, dose response, counter-screen, cell-based, ATP luminescence, mouse fibroblasts (AID 2010); format: functional;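 further: cells exposed to compound for about 90 hours before reading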
[3] = biological target: Glucose-6-phosphate 1-dehydrogenase (Homo sapiens, UniProt P11413); experiment: human G6PD enzyme inhibitors, dose response, selectivity assay for P. falciparum G6PD inhibitor project, biochemical, fluorescence (AID 504792); format: functional
[4] = THP-1 cell cytotoxicity, dose response, cytotoxicity control for non-replicating M. tuberculosis project (AID 489025); format: functional
[5] = biological target: T1, Heat shock factor protein 1 (Mus musculus, UniProt P38532); experiment: HSF1 potentiators in luciferase reporter cells, confirmation, cell-based, NIH3T3, luminescence, dose retest (AID 435004); format: functional;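 further: stress induced by proteasome inhibitor MG132 added 30 min after compound; luciferase reporter driven by HSF1 response element in NIH3T3 cells; actives raise luminescence as potentiators of the MG132 stress response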
T1 sequence (P38532 whole entry): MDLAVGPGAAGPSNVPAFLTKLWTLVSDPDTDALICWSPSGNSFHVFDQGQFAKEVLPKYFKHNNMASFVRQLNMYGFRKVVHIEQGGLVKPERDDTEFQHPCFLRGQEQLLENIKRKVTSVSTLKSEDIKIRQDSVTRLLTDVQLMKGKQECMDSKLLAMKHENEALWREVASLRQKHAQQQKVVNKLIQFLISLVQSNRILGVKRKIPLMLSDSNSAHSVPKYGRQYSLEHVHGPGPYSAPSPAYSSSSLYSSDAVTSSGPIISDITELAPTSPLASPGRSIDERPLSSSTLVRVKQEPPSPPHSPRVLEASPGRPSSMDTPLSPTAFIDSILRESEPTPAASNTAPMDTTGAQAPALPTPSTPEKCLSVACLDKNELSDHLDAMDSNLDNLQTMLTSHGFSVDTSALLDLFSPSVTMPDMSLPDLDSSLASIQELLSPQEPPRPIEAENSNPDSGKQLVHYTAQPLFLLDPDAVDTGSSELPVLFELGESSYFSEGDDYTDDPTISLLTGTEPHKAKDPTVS

Hexokinase-1 = biological target: T2, Hexokinase-1 (Homo sapiens, UniProt P19367); experiment: hexokinase 1 activators, dose response, selectivity assay for HKDC1 activator project, biochemical (AID 504762); format: functional
T2 sequence (P19367 whole entry): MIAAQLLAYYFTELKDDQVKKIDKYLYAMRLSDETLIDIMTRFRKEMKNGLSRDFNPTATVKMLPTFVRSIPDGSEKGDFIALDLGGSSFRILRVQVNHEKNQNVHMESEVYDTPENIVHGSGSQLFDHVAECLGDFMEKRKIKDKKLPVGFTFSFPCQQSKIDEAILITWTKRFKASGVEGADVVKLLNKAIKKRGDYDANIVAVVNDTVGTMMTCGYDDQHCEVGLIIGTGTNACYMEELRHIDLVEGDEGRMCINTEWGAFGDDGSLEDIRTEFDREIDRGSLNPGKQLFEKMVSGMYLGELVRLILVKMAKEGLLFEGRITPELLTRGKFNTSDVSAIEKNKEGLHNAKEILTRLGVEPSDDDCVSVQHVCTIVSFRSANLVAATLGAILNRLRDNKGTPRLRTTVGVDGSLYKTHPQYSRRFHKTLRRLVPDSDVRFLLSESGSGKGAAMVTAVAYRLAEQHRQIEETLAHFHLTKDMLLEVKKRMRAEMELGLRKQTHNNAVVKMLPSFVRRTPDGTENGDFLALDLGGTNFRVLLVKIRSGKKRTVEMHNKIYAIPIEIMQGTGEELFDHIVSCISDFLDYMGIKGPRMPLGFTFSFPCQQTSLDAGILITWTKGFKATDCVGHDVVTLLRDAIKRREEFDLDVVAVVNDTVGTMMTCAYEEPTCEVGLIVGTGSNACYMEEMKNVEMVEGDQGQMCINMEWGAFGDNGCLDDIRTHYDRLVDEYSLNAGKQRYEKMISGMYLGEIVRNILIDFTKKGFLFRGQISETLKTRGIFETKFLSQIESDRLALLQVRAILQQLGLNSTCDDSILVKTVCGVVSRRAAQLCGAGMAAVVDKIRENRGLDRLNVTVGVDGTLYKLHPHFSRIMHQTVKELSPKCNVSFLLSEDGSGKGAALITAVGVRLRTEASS

cells = format: functional
[6] = biological target: T3, Apoptotic protease-activating factor 1 (Homo sapiens, UniProt O14727); format: functional
T3 sequence (O14727 whole entry): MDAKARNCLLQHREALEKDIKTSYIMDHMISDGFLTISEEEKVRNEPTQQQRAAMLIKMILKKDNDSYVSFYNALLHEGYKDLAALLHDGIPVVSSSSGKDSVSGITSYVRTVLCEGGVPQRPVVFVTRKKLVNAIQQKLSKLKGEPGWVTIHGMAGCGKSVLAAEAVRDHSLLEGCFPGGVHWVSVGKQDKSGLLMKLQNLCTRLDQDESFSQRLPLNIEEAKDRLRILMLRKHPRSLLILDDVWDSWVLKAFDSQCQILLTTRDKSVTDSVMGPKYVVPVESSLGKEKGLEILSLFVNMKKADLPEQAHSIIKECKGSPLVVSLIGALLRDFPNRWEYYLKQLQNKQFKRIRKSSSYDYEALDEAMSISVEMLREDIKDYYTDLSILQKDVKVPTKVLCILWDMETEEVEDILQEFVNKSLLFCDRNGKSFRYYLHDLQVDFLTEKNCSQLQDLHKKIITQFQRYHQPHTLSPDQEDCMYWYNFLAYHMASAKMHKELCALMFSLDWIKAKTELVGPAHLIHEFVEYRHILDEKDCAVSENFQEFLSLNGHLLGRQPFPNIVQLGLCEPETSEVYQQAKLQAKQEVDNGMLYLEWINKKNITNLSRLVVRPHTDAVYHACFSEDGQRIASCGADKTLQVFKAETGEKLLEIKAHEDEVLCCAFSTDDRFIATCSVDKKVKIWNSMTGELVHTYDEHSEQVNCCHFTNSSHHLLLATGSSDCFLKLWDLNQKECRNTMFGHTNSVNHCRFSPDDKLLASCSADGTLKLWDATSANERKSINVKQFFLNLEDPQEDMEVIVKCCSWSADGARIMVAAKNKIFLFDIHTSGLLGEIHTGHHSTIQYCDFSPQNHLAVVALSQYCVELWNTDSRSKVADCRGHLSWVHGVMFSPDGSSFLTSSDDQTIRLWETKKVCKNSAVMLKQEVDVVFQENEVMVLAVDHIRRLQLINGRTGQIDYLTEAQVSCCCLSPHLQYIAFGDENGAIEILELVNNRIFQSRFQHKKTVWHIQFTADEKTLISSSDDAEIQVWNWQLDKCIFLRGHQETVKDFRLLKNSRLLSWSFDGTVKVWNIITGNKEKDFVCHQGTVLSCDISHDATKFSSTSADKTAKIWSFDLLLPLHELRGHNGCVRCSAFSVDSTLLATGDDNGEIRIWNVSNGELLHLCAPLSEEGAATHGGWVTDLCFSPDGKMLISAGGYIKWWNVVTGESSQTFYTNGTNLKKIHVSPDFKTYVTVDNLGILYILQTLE

Chain of Glucose-6-phosphate 1-dehydrogenase (P11413 whole entry): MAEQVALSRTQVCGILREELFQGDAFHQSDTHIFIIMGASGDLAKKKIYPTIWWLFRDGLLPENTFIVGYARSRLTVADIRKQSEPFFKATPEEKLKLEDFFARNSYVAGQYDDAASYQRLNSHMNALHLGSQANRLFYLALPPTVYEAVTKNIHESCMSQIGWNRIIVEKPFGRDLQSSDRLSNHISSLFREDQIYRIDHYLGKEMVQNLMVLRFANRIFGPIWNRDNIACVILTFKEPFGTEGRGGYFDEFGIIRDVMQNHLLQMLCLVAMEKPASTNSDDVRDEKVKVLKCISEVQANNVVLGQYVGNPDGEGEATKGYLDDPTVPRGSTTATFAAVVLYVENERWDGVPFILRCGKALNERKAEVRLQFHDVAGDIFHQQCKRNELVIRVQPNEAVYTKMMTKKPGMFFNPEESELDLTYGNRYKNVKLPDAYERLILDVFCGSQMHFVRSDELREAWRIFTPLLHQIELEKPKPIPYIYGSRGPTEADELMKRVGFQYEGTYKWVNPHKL

SMILES: Clc1ccc(/N=c2\ssnc2Cl)nc1
- EC50 [1]: 1.45 µM (active)
- EC50 [2]: > 60 µM (not active)
- IC50 [3]: > 80 µM (inactive)
- CC50 [4]: 17.5 µM (active)
- EC50 [5]: 16 µM (active)
- EC50 (Hexokinase-1): 65.4 µM (inactive)
- IC50 (cells): 32.9 µM (active)
- IC50 [6]: 14.3 µM (active)
